Legend:
[1] = biological target: T1, glutathione S-transferase (GST)-fused full-length human Syk protein (Homo sapiens, UniProt P43405); experiment: Syk enzyme assay; type: biochemical; details: Syk enzyme assay, Test Example 1; read-out: IC50 of Syk-inhibitory activity
T1 construct: (GST)-fused full-length human Syk protein; GST (glutathione S-transferase); purchased Carna Biosciences
Method in brief: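 Baculovirus-expressed enzyme (1.2 ng) was preincubated with compound in HEPES pH 7.0/MgCl2/DTT buffer, 2 min shaking then 13 min at room temperature. Biotin-EDPDYEWPSA-NH2 (0.4 μM final) and ATP (27 μM final) were added for 40 min at room temperature. EDTA stop, streptavidin-XL/PT66-K TR-FRET at 615/665 nm gave IC50.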

[2] = test system: THP-1 cells; experiment: TNFα generation assay; type: cell-based, human; details: Table 22, read-out: IC50 in TNFα generation assay
Method in brief: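 Secreted TNFα in supernatant quantified by ELISA or AlphaLISA after 7 h culture on human IgG-coated wells (10 μg/ml coating). Cells were IFN-γ-differentiated THP-1 (10 ng/ml, 2 days), exposed to compound for 30 min at room temperature before plating.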

[3] = test system: THP-1 cells; experiment: Antibody-dependent phagocytosis assay; type: cell-based; details: Homo sapiens; THP-1 cells induced to differentiate with IFNγ; opsonized Escherichia coli; Table 23; read-out: IC50 upon phagocytosis inhibition
Procedure: THP-1 cells (2×10^5 cells/ml) which are human monocyte-like cell line were cultured in the presence of 10 ng/ml IFNγ for 2 days, so that the cells were induced to differentiate into macrophage-like cells. THP-1 cells that had been induced to differentiate were collected. The cells (5×10^4 cells/well) were reacted with test compounds having given concentrations at room temperature for 30 minutes. Thereafter, Escherichia coli (Life Technologies) labeled with a pH-sensitive dye (pHrodo) was subjected to opsonization using an anti-Escherichia coli antibody (Molecular Probes). Then, the resultant was added to THP-1 cells mixed with test compounds that had been induced to differentiate, followed by incubation at 37° C. for 3 hours. At the time of addition of opsonized Escherichia coli, cell-permeable fluorescent dye (Calcein AM) were simultaneously added thereto, and phagocytosis of opsonized Escherichia coli in viable cells was quantitatively determined using an IN Cell Analyzer.
In addition, the following are used in Table 23 to denote standards for evaluating IC50 upon phagocytosis inhibition. • A: Up to 1 μM • B: 1 to 3 μM • C: 3 to 6 μM

[4] = Homo sapiens, THP-1, THP-1 cells

`NC(=O)c1cc(F)c(N[C@@H]2CCCC[C@@H]2N)nc1Nc1ccnc2[nH]ccc12` (relative stereo) [Example 004-060] was tested, and the IC50 [1] was under 10 nM, the IC50 [2, 4] was under 65 nM and the IC50 [3] was 1000 to 3000 nM.

With `NC(=O)c1cc(F)c(N[C@@H]2CCCC[C@@H]2N)nc1Nc1cc(F)c2[nH]ccc2c1` (relative stereo) [Example 004-079, 6-(cis-2-aminocyclohexylamino)-5-fluoro-2-((7-fluoro-1H-indol-5-yl)amino)nicotinamide] the IC50 [1] was under 10 nM, the IC50 [2, 4] was under 65 nM and the IC50 [3] was 1000 to 3000 nM.

For `COc1cccc2cc(Nc3nc(N[C@@H]4CCCC[C@@H]4N)c(F)cc3C(N)=O)cnc12` (relative stereo) [Example 004-120, 6-(cis-2-aminocyclohexylamino)-5-fluoro-2-((8-methoxyquinolin-3-yl)amino)nicotinamide], the IC50 [1] was under 10 nM and the IC50 [3] was under 1000 nM.

Work on `N#Cc1cc(Nc2nc(N[C@@H]3CCCC[C@@H]3N)c(F)cc2C(N)=O)cnc1N1CCOCC1` (relative stereo) [Example 004-228, 6-((cis-2-aminocyclohexyl)amino)-2-((5-cyano-6-morpholinopyridin-3-yl)amino)-5-fluoronicotinamide] yielded an IC50 [1] of 10 to 50 nM, an IC50 [2, 4] of 65 to 130 nM and an IC50 [3] of 1000 to 3000 nM.

Work on `NC(=O)c1cc(F)c(NC2CCCCC2N)nc1Nc1cncc(-c2ccccc2)c1` (stereo not shown) [Example 002-001] yielded an IC50 [1] of under 10 nM, an IC50 [2, 4] of under 65 nM and an IC50 [3] of 1000 to 3000 nM.

With `Cc1ncc(Nc2nc(NC3CCCCC3N)c(F)cc2C(N)=O)cc1-n1nccn1` (stereo not shown) [Example 002-134] the IC50 [1] was under 10 nM, the IC50 [2, 4] was 65 to 130 nM and the IC50 [3] was 1000 to 3000 nM.

For `CC(=O)Nc1cccc2cc(Nc3nc(N[C@@H]4CCCC[C@@H]4N)c(F)cc3C(N)=O)cnc12` [Example 004-008], the IC50 [1] was under 10 nM, the IC50 [2, 4] was under 65 nM and the IC50 [3] was under 1000 nM.

`Cn1ccc2c(Nc3nc(N[C@@H]4CCCC[C@@H]4N)c(F)cc3C(N)=O)ccnc21` [Example 004-013] showed an IC50 [1] of under 10 nM, an IC50 [2, 4] of under 65 nM and an IC50 [3] of 1000 to 3000 nM.

Compound `Cc1ccc(Nc2nc(N[C@@H]3CCCC[C@@H]3N)c(F)cc2C(N)=O)cn1` [Example 004-017] has an IC50 [1] of 10 to 50 nM, an IC50 ([2]; THP-1 cells) of 65 to 130 nM and an IC50 [3] of 3000 to 6000 nM.

`COc1cncc(Nc2nc(N[C@@H]3CCCC[C@@H]3N)c(F)cc2C(N)=O)c1` [Example 004-031] gave an IC50 [1] of under 10 nM, an IC50 [2, 4] of 130 to 200 nM and an IC50 [3] of 1000 to 3000 nM.

`NC(=O)c1cc(F)c(N[C@@H]2CCCC[C@@H]2N)nc1Nc1cncc(-n2nccn2)c1` [Example 004-042] was tested, and the IC50 [1] was under 10 nM, the IC50 [2, 4] was 65 to 130 nM and the IC50 [3] was 1000 to 3000 nM.

In the case of `COc1cc(Nc2nc(NC[C@H](C)N)c(F)cc2C(N)=O)cc(OC)n1` [Example 006-098, (S)-6-((2-aminopropyl)amino)-2-((2,6-dimethoxypyridin-4-yl)amino)-5-fluoronicotinamide], the IC50 [1] is reported as under 10 nM, the IC50 [2, 4] is reported as under 65 nM and the IC50 [3] is reported as under 1000 nM.

For `COCCOc1cc(Nc2nc(N[C@@H](CN)CC(C)C)c(F)cc2C(N)=O)ccn1` [Example 006-157, (R)-6-((1-amino-4-methylpentan-2-yl)amino)-5-fluoro-2-((2-(2-methoxyethoxy)pyridin-4-yl)amino)nicotinamide], the IC50 [1] was under 10 nM, the IC50 [2, 4] was 65 to 130 nM and the IC50 [3] was under 1000 nM.

With `NC(=O)c1cc(F)c(N[C@@H]2CCCC[C@@H]2N)nc1Nc1ccc(N2CCOCC2)nc1` [Example 006-165, 6-(((1R,2S)-2-aminocyclohexyl)amino)-5-fluoro-2-((6-morpholinopyridin-3-yl)amino)nicotinamide] the IC50 [1] was 10 to 50 nM, the IC50 [2, 4] was 65 to 130 nM and the IC50 [3] was 1000 to 3000 nM.

For `COCCOc1ccc2cc(Nc3nc(N[C@@H]4CCCC[C@@H]4N)c(F)cc3C(N)=O)cnc2c1` [Example 006-173, 6-(((1R,2S)-2-aminocyclohexyl)amino)-5-fluoro-2-((7-(2-methoxyethoxy)quinolin-3-yl)amino)nicotinamide], the IC50 [1] was under 10 nM, the IC50 ([2]; THP-1 cells) was 65 to 130 nM and the IC50 [3] was 1000 to 3000 nM.

In the case of `Cc1cc(Nc2nc(N[C@@H](CN)CC(C)C)c(F)cc2C(N)=O)cnc1C` [Example 006-177, (R)-6-((1-amino-4-methylpentan-2-yl)amino)-2-((5,6-dimethylpyridin-3-yl)amino)-5-fluoronicotinamide], the IC50 [1] is reported as under 10 nM, the IC50 [2, 4] is reported as 130 to 200 nM and the IC50 [3] is reported as 1000 to 3000 nM.

Compound `CC[C@@H](Nc1nc(Nc2ccc3c(cnn3CC)c2)c(C(N)=O)cc1F)[C@H](C)N` [Example 006-211, 6-(((2S,3R)-2-aminopentan-3-yl)amino)-2-((1-ethyl-1H-indazol-5-yl)amino)-5-fluoronicotinamide] has an IC50 [1] of under 10 nM, an IC50 [2, 4] of under 65 nM and an IC50 [3] of 1000 to 3000 nM.

In the case of `CCC[C@@H](Nc1nc(Nc2cncc(-n3cccn3)c2)c(C(N)=O)cc1F)[C@H](C)N` [Example 006-219, 2-((5-(1H-pyrazol-1-yl)pyridin-3-yl)amino)-6-(((2S,3R)-2-aminohexan-3-yl)amino)-5-fluoronicotinamide], the IC50 [1] is reported as under 10 nM, the IC50 [2, 4] is reported as 65 to 130 nM and the IC50 [3] is reported as 1000 to 3000 nM.

For `CCC[C@@H](Nc1nc(Nc2ccnc(OC)c2)c(C(N)=O)cc1F)[C@H](C)N` [Example 006-249, 6-(((2S,3R)-2-aminohexan-3-yl)amino)-5-fluoro-2-((2-methoxypyridin-4-yl)amino)nicotinamide], the IC50 [1] was under 10 nM, the IC50 [2, 4] was under 65 nM and the IC50 [3] was 1000 to 3000 nM.

Work on `CC[C@@H](Nc1nc(Nc2cncc(-c3ccccc3F)c2)c(C(N)=O)cc1F)[C@H](C)N` [Example 006-257, 6-(((2S,3R)-2-aminopentan-3-yl)amino)-5-fluoro-2-((5-(2-fluorophenyl)pyridin-3-yl)amino)nicotinamide] yielded an IC50 [1] of under 10 nM, an IC50 [2, 4] of under 65 nM and an IC50 [3] of 1000 to 3000 nM.

`CC[C@@H](Nc1nc(Nc2ccc3c(OC)nccc3c2)c(C(N)=O)cc1F)[C@H](C)N` [Example 006-263, 6-(((2S,3R)-2-aminopentan-3-yl)amino)-5-fluoro-2-((1-methoxyisoquinolin-6-yl)amino)nicotinamide] was tested, and the IC50 [1] was under 10 nM, the IC50 [2, 4] was under 65 nM and the IC50 [3] was 1000 to 3000 nM.

`CC[C@@H](Nc1nc(Nc2cncc(-c3ccccc3)c2)c(C(N)=O)cc1F)[C@H](C)N` [Example 006-270, 6-(((2S,3R)-2-aminopentan-3-yl)amino)-5-fluoro-2-((5-phenylpyridin-3-yl)amino)nicotinamide] gave an IC50 [1] of under 10 nM, an IC50 [2, 4] of under 65 nM and an IC50 [3] of 1000 to 3000 nM.

Compound `NC(=O)c1cc(F)c(NC2CCCCC2N)nc1Nc1cccc(C(F)(F)F)c1` (stereo not shown) [Example 008-007] has an IC50 [1] of under 10 nM and an IC50 [3] of 3000 to 6000 nM.

`NC(=O)c1cc(Nc2nc(NC3CCCC[C@@H]3N)c(F)cc2C(N)=O)ccn1` (stereo partly shown) [Example 029-012] showed an IC50 [3] of 3000 to 6000 nM.

Compound `C[C@H](CN)Nc1nc(Nc2ccc3ncccc3c2)c(C(N)=O)cc1F` [Example 39-3, (R)-6-((1-aminopropan-2-yl)amino)-5-fluoro-2-((quinolin-6-yl)amino)nicotinamide] has an IC50 [1] of under 10 nM and an IC50 [2, 4] of under 65 nM.

For `NC[C@H](Nc1nc(Nc2ccc3ncccc3c2)c(C(N)=O)cc1F)c1ccccc1` [Example 39-4, (R)-6-((2-amino-1-phenylethyl)amino)-5-fluoro-2-((quinolin-6-yl)amino)nicotinamide], the IC50 [1] was under 10 nM and the IC50 [2, 4] was 65 to 130 nM.

Compound `NC(=O)c1cc(F)c(N[C@@H]2CCCC[C@@H]2N)nc1Nc1cncc(-c2cccc(N)c2)c1` [Example 043-000] has an IC50 [1] of under 10 nM and an IC50 ([2]; THP-1 cells) of 65 to 130 nM.

With `Cc1cc(Nc2nc(N[C@H](CCCO)[C@H](C)N)c(F)cc2C(N)=O)cnc1C` [Example 044-000] the IC50 [1] was 10 to 50 nM and the IC50 [2, 4] was 65 to 130 nM.

— patent US8895585B2, “Nicotinamide derivative or salt thereof” (FUJIFILM Corporation, priority 2010, dated 2014)
